Measurements taken from ChEMBL document CHEMBL1909046, “DrugMatrix in vitro pharmacology data”.

Experiments:
[1] = DRUGMATRIX: ATPase, Na+/K+ enzyme inhibition (substrate: ATP); type: tissue-based, Sus scrofa, Heart; conditions: Not Active = under 50% inhibition at 10 µM
[2] = DRUGMATRIX: GABAA, Flunitrazepam, Central radioligand binding (ligand: [3H] Flunitrazepam); type: cell membranes, Rattus norvegicus, Wistar, Brain, Membrane; conditions: Not Active = under 50% inhibition at 10 µM
Carbonic anhydrase 2 = Carbonic anhydrase 2 (Homo sapiens, UniProt P00918); experiment: DRUGMATRIX: Carbonic Anhydrase II enzyme inhibition (substrate: 4-Nitrophenyl acetate (4-NPA)); type: tissue-based, Erythrocyte; conditions: erythrocyte; Not Active = under 50% inhibition at 10 µM
[3] = target: T1, Cholecystokinin receptor type A (Homo sapiens, UniProt P32238); type: cell membranes, Membrane; conditions: 1321-n1; further: in other assays of this panel Not Active means under 50% inhibition at 10 µM
T1 sequence (P32238 whole entry): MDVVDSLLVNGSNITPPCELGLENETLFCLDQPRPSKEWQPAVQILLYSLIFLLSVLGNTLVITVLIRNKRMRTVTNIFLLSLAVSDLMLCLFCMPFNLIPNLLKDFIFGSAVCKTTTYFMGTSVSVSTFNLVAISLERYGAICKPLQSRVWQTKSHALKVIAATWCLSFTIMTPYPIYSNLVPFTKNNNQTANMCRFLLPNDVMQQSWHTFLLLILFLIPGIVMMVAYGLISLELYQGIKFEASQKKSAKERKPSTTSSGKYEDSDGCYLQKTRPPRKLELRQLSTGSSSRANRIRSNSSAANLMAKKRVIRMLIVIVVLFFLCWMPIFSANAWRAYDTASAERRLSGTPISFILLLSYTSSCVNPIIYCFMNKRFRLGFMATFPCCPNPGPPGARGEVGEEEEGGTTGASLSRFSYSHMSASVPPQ

[4] = target: T2, Cysteinyl leukotriene receptor 1 (Homo sapiens, UniProt Q9Y271); type: cell membranes, CHO-K1, Membrane; conditions: cho-k1; further: in other assays of this panel Not Active means under 50% inhibition at 10 µM
T2 sequence (Q9Y271 whole entry): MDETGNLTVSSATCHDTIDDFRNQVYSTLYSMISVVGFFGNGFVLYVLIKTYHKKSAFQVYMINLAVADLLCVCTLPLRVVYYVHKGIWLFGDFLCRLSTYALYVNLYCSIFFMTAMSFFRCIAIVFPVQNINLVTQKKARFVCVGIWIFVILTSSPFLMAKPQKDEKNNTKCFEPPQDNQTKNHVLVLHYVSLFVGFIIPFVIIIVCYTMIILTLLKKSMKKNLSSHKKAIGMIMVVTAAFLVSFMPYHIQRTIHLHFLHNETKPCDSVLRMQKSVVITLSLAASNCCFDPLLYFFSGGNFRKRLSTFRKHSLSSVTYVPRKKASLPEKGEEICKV

Cytochrome P450 2C9 = Cytochrome P450 2C9 (Homo sapiens, UniProt P11712); conditions: bti-tn-5b1-4; further: in other assays of this panel Not Active means under 50% inhibition at 10 µM
Sequence of Cytochrome P450 2C9 (P11712 whole entry): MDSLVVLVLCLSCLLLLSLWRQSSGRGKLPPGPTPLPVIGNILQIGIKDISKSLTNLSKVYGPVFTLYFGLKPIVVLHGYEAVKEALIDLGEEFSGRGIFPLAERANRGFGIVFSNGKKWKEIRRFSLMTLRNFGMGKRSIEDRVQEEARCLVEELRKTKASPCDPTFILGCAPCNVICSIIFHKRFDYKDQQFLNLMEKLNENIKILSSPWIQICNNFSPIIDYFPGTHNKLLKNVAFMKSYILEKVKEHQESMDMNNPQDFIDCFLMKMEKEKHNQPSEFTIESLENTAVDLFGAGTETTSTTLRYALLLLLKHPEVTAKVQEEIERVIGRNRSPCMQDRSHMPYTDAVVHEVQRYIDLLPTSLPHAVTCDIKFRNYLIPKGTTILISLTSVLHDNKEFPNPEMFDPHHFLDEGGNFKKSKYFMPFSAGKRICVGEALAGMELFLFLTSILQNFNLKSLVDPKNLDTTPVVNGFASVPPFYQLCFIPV

[5] = target: Epidermal growth factor receptor (Homo sapiens, UniProt P00533); experiment: DRUGMATRIX: Protein Tyrosine Kinase, EGF Receptor enzyme inhibition (substrate: Poly(Glu:Tyr)); type: cell-based, Insect cells; conditions: insect cells; Not Active = under 50% inhibition at 10 µM
Sequence of Epidermal growth factor receptor (P00533 whole entry): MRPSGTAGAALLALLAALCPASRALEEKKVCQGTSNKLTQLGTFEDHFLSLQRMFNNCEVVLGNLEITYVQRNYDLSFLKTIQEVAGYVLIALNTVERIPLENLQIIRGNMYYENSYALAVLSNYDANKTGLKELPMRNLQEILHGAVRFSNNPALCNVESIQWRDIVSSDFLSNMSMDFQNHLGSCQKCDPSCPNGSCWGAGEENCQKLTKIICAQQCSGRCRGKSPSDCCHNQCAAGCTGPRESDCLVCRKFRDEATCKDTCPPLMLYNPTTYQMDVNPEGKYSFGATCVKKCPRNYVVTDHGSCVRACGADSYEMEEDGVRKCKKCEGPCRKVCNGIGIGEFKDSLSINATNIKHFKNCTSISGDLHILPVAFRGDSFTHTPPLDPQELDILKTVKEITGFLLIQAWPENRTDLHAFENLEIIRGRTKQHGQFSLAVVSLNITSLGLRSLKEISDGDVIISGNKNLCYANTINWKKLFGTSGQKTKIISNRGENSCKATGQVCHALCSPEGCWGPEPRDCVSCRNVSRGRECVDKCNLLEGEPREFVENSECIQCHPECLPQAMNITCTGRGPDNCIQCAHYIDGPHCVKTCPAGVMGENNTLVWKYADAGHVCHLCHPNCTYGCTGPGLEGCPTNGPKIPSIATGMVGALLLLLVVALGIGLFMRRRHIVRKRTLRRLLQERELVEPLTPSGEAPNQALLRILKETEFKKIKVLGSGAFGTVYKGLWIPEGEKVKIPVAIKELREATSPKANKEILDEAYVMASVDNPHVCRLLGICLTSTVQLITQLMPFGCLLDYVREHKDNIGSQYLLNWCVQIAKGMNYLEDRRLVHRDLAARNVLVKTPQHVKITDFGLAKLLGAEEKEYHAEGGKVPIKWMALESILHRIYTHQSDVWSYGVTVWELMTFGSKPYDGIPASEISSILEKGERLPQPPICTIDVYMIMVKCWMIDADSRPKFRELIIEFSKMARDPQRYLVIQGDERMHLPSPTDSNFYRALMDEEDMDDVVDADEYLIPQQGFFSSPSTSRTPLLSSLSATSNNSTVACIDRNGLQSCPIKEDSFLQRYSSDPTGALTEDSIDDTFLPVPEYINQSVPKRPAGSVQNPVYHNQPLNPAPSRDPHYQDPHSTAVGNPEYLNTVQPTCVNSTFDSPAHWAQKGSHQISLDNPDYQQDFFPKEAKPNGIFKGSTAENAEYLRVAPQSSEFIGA

C[C@]12CC[C@@H]3c4ccc(OC(=O)c5ccccc5)cc4CC[C@H]3[C@@H]1CC[C@@H]2O [ESTRADIOL BENZOATE]
Not Active: IC50 [1] | Ki [1] | IC50 [2] | Ki [2] | IC50 (Carbonic anhydrase 2) | IC50 [3] | IC50 [4] | IC50 (Cytochrome P450 2C9) | Ki (Cytochrome P450 2C9) | IC50 [5]

CC1(C)O[C@@H]2C[C@H]3[C@@H]4C[C@H](F)C5=CC(=O)C=C[C@]5(C)[C@H]4[C@@H](O)C[C@]3(C)[C@]2(C(=O)CO)O1 [FLUNISOLIDE]
Not Active: IC50 [1] | Ki [1] | IC50 [2] | Ki [2] | IC50 (Carbonic anhydrase 2) | IC50 [3] | IC50 [4] | IC50 (Cytochrome P450 2C9) | Ki (Cytochrome P450 2C9) | IC50 [5]

CC(=O)Nc1ccc(O)cc1 [ACETAMINOPHEN]
Not Active: IC50 [1] | Ki [1] | IC50 [2] | Ki [2] | IC50 (Carbonic anhydrase 2) | IC50 [3] | IC50 [4] | IC50 (Cytochrome P450 2C9) | Ki (Cytochrome P450 2C9) | IC50 [5]

CCc1c2c(nc3ccc(OC(=O)N4CCC(N5CCCCC5)CC4)cc13)-c1cc3c(c(=O)n1C2)COC(=O)[C@]3(O)CC [IRINOTECAN]
Not Active: IC50 [1] | Ki [1] | IC50 [2] | Ki [2] | IC50 (Carbonic anhydrase 2) | IC50 [3] | IC50 [4] | IC50 (Cytochrome P450 2C9) | Ki (Cytochrome P450 2C9) | IC50 [5]

C[C@]12CC[C@@H]3c4ccc(O)cc4CC[C@H]3[C@@H]1CC[C@@H]2O [ESTRADIOL]
Not Active: IC50 [1] | Ki [1] | IC50 [2] | Ki [2] | IC50 (Carbonic anhydrase 2) | IC50 [3] | IC50 [4] | IC50 (Cytochrome P450 2C9) | Ki (Cytochrome P450 2C9) | IC50 [5]

C#C[C@]1(OC(C)=O)CC[C@H]2[C@@H]3CCC4=CC(=O)CC[C@@H]4[C@H]3CC[C@@]21C [NORETHINDRONE ACETATE]
Not Active: IC50 [1] | Ki [1] | IC50 [2] | Ki [2] | IC50 (Carbonic anhydrase 2) | IC50 [3] | IC50 [4] | IC50 (Cytochrome P450 2C9) | Ki (Cytochrome P450 2C9) | IC50 [5]

N=C(Nc1ccccc1)Nc1ccccc1
Not Active: IC50 [1] | Ki [1] | IC50 [2] | Ki [2] | IC50 (Carbonic anhydrase 2) | IC50 [3] | IC50 [4] | IC50 (Cytochrome P450 2C9) | Ki (Cytochrome P450 2C9) | IC50 [5]

ClC(Cl)Cl [CHLOROFORM]
Not Active: IC50 [1] | Ki [1] | IC50 [2] | Ki [2] | IC50 (Carbonic anhydrase 2) | IC50 [3] | IC50 [4] | IC50 (Cytochrome P450 2C9) | Ki (Cytochrome P450 2C9) | IC50 [5]

N=C(N)NC(=O)c1nc(Cl)c(N)nc1N [AMILORIDE]
Not Active: IC50 [1] | Ki [1] | IC50 [2] | Ki [2] | IC50 (Carbonic anhydrase 2) | IC50 [3] | IC50 [4] | IC50 (Cytochrome P450 2C9) | Ki (Cytochrome P450 2C9) | IC50 [5]

CCN1CC(CCN2CCOCC2)C(c2ccccc2)(c2ccccc2)C1=O (stereo not given) [DOXAPRAM]
Not Active: IC50 [1] | Ki [1] | IC50 [2] | Ki [2] | Ki (Carbonic anhydrase 2) | IC50 [3] | IC50 [4] | IC50 (Cytochrome P450 2C9) | Ki (Cytochrome P450 2C9) | IC50 [5]

Cc1ccc(S(=O)(=O)NC(=O)NN2CC3CCCC3C2)cc1 (stereo not given) [GLICLAZIDE]
Not Active: IC50 [1] | Ki [1] | IC50 [2] | Ki [2] | IC50 (Carbonic anhydrase 2) | IC50 [3] | IC50 [4] | IC50 (Cytochrome P450 2C9) | Ki (Cytochrome P450 2C9) | IC50 [5]

COc1cccc2c1C(=O)c1c(O)c3c(c(O)c1C2=O)C[C@@](O)(C(=O)CO)C[C@@H]3O[C@H]1C[C@H](N)[C@H](O)[C@H](C)O1 [DOXORUBICIN]
Not Active: IC50 [1] | Ki [1] | IC50 [2] | Ki [2] | IC50 (Carbonic anhydrase 2) | IC50 [3] | IC50 [4] | IC50 (Cytochrome P450 2C9) | Ki (Cytochrome P450 2C9) | IC50 [5]
